According to ChEMBL document CHEMBL4049396, “Enzymatic and solid-phase synthesis of new donepezil-based L- and d-glutamic acid derivatives and their pharmacological evaluation in models related to Alzheimer's disease and cerebral ischemia” (Eur J Med Chem, 2017):
Activity calls are given as the source filed them. The rule behind the calls is not given here.

What was measured:
SH-SY5Y [1] = assay: Neuroprotective activity against rotenone/oligomycin A-induced mitochondrial oxidative stress in human SH-SY5Y cells assessed as cell survival at 0.3 uM pretreated for 24 hrs followed by rotenone/oligomycin A challenge measured after 24 hrs by MTT assay relative to control; format: functional; conditions: read-out: Survival
physchem = conditions: PAMPA, pH 7.4
Description: Permeability of the compound at pH 7.4 at 1 mg/ml after 4 hrs by PAMPA-BBB assay

SH-SY5Y [2] = assay: Cytotoxicity against human SH-SY5Y cells at 0.3 uM after 24 hrs by MTT assay; format: cell-based
Acetylcholinesterase = Acetylcholinesterase (Homo sapiens, UniProt P22303); assay: Inhibition of recombinant human AChE expressed in HEK293 cells using acetylthiocholine iodide as substrate pretreated for 5 mins followed by substrate addition measured for 5 mins by UV-Vis spectrophotometric method
Chain of Acetylcholinesterase (P22303 whole entry): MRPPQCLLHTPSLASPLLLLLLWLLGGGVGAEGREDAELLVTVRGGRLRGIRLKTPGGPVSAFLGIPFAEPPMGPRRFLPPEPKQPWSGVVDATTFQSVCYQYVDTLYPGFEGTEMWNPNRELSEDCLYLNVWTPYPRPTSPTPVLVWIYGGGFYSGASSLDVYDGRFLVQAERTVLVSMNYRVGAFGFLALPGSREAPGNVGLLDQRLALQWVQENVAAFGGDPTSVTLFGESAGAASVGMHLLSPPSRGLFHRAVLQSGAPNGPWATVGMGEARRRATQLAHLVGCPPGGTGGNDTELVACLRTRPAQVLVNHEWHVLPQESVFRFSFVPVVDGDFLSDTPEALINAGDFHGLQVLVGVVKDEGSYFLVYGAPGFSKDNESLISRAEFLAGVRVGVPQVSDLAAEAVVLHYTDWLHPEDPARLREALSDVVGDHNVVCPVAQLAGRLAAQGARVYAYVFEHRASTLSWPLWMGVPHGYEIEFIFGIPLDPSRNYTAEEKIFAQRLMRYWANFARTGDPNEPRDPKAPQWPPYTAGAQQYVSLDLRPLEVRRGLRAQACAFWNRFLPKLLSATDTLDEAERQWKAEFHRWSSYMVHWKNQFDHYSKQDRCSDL

[3] = Antioxidant activity assessed as oxygen radical absorbance capacity at 10 uM; format: functional
Cholinesterase = Cholinesterase (Homo sapiens, UniProt P06276); assay: Inhibition of human serum BuChE using butyrylthiocholine iodide as substrate pretreated for 5 mins followed by substrate addition measured for 5 mins by UV-Vis spectrophotometric method
Chain of Cholinesterase (P06276 whole entry): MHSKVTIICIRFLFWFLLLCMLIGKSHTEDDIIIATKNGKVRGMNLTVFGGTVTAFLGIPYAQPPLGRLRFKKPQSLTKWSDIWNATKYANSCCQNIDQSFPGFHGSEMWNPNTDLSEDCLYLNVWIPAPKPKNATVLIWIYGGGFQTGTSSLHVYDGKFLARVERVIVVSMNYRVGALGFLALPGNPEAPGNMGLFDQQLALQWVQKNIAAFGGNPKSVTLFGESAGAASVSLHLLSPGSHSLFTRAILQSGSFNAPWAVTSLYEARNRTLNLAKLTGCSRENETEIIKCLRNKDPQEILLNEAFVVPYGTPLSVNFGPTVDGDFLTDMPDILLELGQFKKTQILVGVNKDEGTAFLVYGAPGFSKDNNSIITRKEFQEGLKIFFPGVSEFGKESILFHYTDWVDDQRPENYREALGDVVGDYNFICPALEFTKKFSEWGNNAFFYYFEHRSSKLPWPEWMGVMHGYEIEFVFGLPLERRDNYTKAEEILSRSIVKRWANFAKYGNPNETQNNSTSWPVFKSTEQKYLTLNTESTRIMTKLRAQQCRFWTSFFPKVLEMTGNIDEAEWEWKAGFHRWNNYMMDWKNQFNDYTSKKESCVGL

SH-SY5Y [4] = assay: Neuroprotective activity against oxygen glucose deprivation/re-oxygenation-induced mitochondrial oxidative stress in human SH-SY5Y cells assessed as cell survival at 0.3 uM pretreated for 24 hrs followed by 4 hrs incubation under oxygen glucose deprivation medium and subsequent exposure to normoxic condition by MTT assay relative to control; format: functional; conditions: read-out: Survival
[5] = target: T1, Voltage-gated L-type calcium channel (Homo sapiens, UniProt Q13936+Q13698+Q01668+O60840); assay: (§1) Inhibition of L-type voltage dependent calcium channel in human SH-SY5Y cells assessed as reduction in K+-induced cytosolic free calcium transient current preincubated for 15 mins followed by potassium challenge measured for 14 secs by Fluo-4AM dye based fluorescence assay; format: cell-based
Hippocampus [6] = assay: Neuroprotective activity in oxygen glucose deprivation/re-oxygenation-induced Sprague-Dawley rat hippocampal slice cerebral ischemia model assessed as cell viability at 1 uM incubated for 2 hrs under normoxic condition by MTT assay (reference value: 40%); format: functional
Hippocampus [7] = assay: Neuroprotective activity in oxygen glucose deprivation/re-oxygenation-induced Sprague-Dawley rat hippocampal slice cerebral ischemia model assessed as increase in cell viability incubated for 2 hrs under normoxic condition by MTT assay; format: functional, tissue-based
[8] = target: T1, Voltage-gated L-type calcium channel; assay: as §1, with “current at 100 uM” for “current”, “assay relative to control” for “assay”; format: cell-based; conditions: 14 s
Homo sapiens = species: Homo sapiens; assay: Ratio of IC50 for recombinant human AChE expressed in HEK293 cells to IC50 for human serum BuChE; format: cell-based
Hippocampus [9] = assay: Neuroprotective activity in oxygen glucose deprivation/re-oxygenation-induced Sprague-Dawley rat hippocampal slice cerebral ischemia model assessed as cell viability at 3 uM incubated for 2 hrs under normoxic condition by MTT assay (reference value: 40%); format: functional
[10] = Antioxidant activity assessed as oxygen radical absorbance capacity at 10 uM relative to trolox; format: functional
Bos taurus [11] = species: Bos taurus; assay: Inhibition of L-type voltage dependent calcium channel in bovine Chromaffin cells assessed as reduction in K+-induced calcium transient current area at 10 uM preincubated for 5 mins followed by potassium challenge measured by Fluo-4AM dye based fluorescence assay relative to control; format: cell-based
[12] = Inhibition of L-type voltage dependent calcium channel in bovine Chromaffin cells assessed as reduction in K+-induced cytosolic free calcium transient current preincubated for 5 mins followed by potassium challenge measured by Fluo-4AM dye based fluorescence assay; format: cell-based; conditions: Bos taurus
Bos taurus [13] = species: Bos taurus; assay: Inhibition of L-type voltage dependent calcium channel in bovine Chromaffin cells assessed as reduction in K+-induced calcium current amplitude at 10 uM preincubated for 5 mins followed by potassium challenge measured by Fluo-4AM dye based fluorescence assay relative to control; format: cell-based

Compound	viability at 0.3 µM (SH-SY5Y [1])	Papp at 4 h, 1 mg/ml (physchem)	Activity (SH-SY5Y [2])	IC50 (Acetylcholinesterase)	Activity [3]	IC50 (Cholinesterase)	viability at 0.3 µM (SH-SY5Y [4])	IC50 [5]	Activity (Hippocampus [6])	Activity (Hippocampus [7])	%max [8]	Ratio IC50 (Homo sapiens)	Activity (Hippocampus [9])	Activity [10]	inhibition (Bos taurus [11])	IC50 [12]	inhibition (Bos taurus [13])
CCOC(=O)[C@@H](CCC(=O)NCCC1CCN(Cc2ccccc2)CC1)NC(=O)c1ccccc1	15.1%	66 nm/s	Non-Toxic	0.5 µM	inactive	0.39 µM	39.8%	–	–	–	–	–	–	–	–	–	–
CCOC(=O)CC[C@H](NC(=O)OCc1ccccc1)C(=O)NCCC1CCN(Cc2ccccc2)CC1	35.2%	210 nm/s	Non-Toxic	4.99 µM	inactive	0.4 µM	42.7%	90.1 µM	48%	Dose-dependent effect	63%	10	69%	–	–	–	–
COc1ccc2[nH]cc(CCNC(C)=O)c2c1 [MELATONIN]	33.4%	–	–	–	–	–	31.4%	–	–	–	–	–	–	–	–	–	–
COc1ccc2cc(C(=O)N[C@@H](CCC(=O)NCCC3CCN(Cc4ccccc4)CC3)C(=O)O)ccc2c1	35%	–	Non-Toxic	15.2 µM	inactive	97 µM	45%	–	–	–	–	–	–	–	–	–	–
CCOC(=O)[C@H](CCC(=O)NCCC1CCN(Cc2ccccc2)CC1)NC(=O)c1c[nH]c2ccccc12	39.5%	45 nm/s	Non-Toxic	1.9 µM	–	0.3 µM	42.4%	–	–	–	–	–	–	70 to 73%	–	–	–
CCOC(=O)CC[C@H](NC(=O)OCc1ccccc1)C(=O)OCC	37.3%	–	Non-Toxic	> 10 µM	inactive	> 10 µM	51.6%	–	–	–	–	–	–	–	–	–	–
CCOC(=O)CC[C@@H](NC(=O)OCc1ccccc1)C(=O)OCC	34.7%	–	Non-Toxic	> 10 µM	inactive	> 10 µM	47.1%	–	–	–	–	–	–	–	–	–	–
O=C(CC[C@H](NC(=O)c1c[nH]c2ccccc12)C(=O)O)NCCC1CCN(Cc2ccccc2)CC1	34.6%	18 nm/s	Non-Toxic	6.4 µM	–	71 µM	48.4%	–	–	–	–	–	–	70 to 73%	–	–	–
CCCCCCOC(=O)[C@H](CCC(=O)NCCC1CCN(Cc2ccccc2)CC1)NC(=O)c1c[nH]c2ccccc12	22.1%	96 nm/s	Non-Toxic	3.04 µM	–	1.85 µM	31.8%	–	–	–	–	–	–	70 to 73%	–	–	–
CCOC(=O)CC[C@@H](NC(=O)OCc1ccccc1)C(=O)NCCC1CCN(Cc2ccccc2)CC1	31.6%	167 nm/s	Non-Toxic	3 µM	inactive	0.17 µM	47%	–	–	–	–	10	–	–	–	–	–
CCCCCCOC(=O)[C@@H](CCC(=O)NCCC1CCN(Cc2ccccc2)CC1)NC(=O)c1ccccc1	13%	139 nm/s	Non-Toxic	0.89 µM	inactive	0.36 µM	32.2%	–	–	–	–	–	–	–	–	–	–
O=C(CC[C@H](NC(=O)c1ccccc1)C(=O)O)NCCC1CCN(Cc2ccccc2)CC1	46.5%	35 nm/s	Non-Toxic	0.76 µM	inactive	> 10 µM	50.6%	–	–	–	–	–	–	–	–	–	–
O=C(CC[C@@H](NC(=O)c1ccccc1)C(=O)O)NCCC1CCN(Cc2ccccc2)CC1	22.6%	46 nm/s	Non-Toxic	20 µM	inactive	82 µM	38.5%	–	–	–	–	–	–	–	–	–	–
CCOC(=O)[C@H](CCC(=O)NCCC1CCN(Cc2ccccc2)CC1)NC(=O)c1ccc2cc(OC)ccc2c1	25.3%	83 nm/s	Non-Toxic	0.89 µM	inactive	3.8 µM	37.7%	–	–	–	–	–	–	–	–	–	–
CCOC(=O)[C@H](CCC(=O)NCCC1CCN(Cc2ccccc2)CC1)NC(=O)c1ccccc1	38.6%	52 nm/s	Non-Toxic	0.85 µM	inactive	1.3 µM	50.9%	–	–	–	–	–	–	–	–	–	–
CCCCCCOC(=O)[C@H](CCC(=O)NCCC1CCN(Cc2ccccc2)CC1)NC(=O)c1ccccc1	44.1%	–	Non-Toxic	–	inactive	–	53.4%	14.1 µM	–	–	–	–	55%	–	80%	5.31 µM	40%
